Data taken from US20030176314A1, “Compounds for the treatment of pain” (priority 2001, published 2003).
pKi: −log10 of the molar value.

Assays:
[1] = target: T1, norepinephrine (NE) transporter (Rattus norvegicus, UniProt Q63380); assay: Binding at native norepinephrine transporter (NE uptake); conditions: Table 8
T1 construct: evaluated at native, tissue-derived transporters; from tissue
Method in brief: (§1)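 Binding (Ki) at native, tissue-derived rat serotonin and norepinephrine transporters, measured by the Owens (1997) protocol.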

human Y1 receptor = target: T2, human Y1 receptor (Homo sapiens, UniProt P25929); assay: Binding at human neuropeptide Y Y1 receptor; conditions: Table 8; read-out: hY1 Ki
T2 construct: host or cells: 293 cells, line 293-hY1-5
T2 sequence (P25929 1-384): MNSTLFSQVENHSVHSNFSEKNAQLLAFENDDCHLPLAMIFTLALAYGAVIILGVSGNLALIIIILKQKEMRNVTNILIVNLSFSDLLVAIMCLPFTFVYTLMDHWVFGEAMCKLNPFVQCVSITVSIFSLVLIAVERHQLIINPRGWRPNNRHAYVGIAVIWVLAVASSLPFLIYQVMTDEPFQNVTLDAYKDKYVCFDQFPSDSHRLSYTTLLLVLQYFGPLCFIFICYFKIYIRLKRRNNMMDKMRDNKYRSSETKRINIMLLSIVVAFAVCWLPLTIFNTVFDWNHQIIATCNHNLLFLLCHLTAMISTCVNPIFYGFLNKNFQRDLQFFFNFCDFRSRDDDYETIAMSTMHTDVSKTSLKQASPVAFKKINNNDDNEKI
Text: (§2) Neuropeptide receptors: Stably transfected cell lines which may be used for binding experiments include, for the Y1 receptor, 293-hY1-5 (deposited Jun. 4, 1996, under ATCC Accession No. CRL-12121); for the Y2 receptor, 293-hY2-10 (deposited Jan. 27, 1994, under ATCC Accession No. CRL-11837); for the Y4 receptor, L-hY4-3 (deposited Jan. 11, 1995, under ATCC Accession No. CRL 11779); and for the Y5 receptor, L-hY5-7 (deposited Nov. 15, 1995, under ATCC Accession No. CRL 11995).
(§3) Binding assays using the NPY receptors may be carried out according to the procedures described in U.S. Pat. No. 5,602,024, the disclosure of which is hereby incorporated by reference in its entirety into this application.
(§4) The binding affinity (Ki) of these compounds were tested according to the protocols described herein at the following receptors; human α1A, α1B, α1D, α2A, α2B, and α2C adrenergic receptors; human Y1, Y2, Y4, and Y5 receptors; and N-Methyl-D-aspartic acid (NMDA) receptor channels. The binding interactions of these compounds were additionally tested at the norepinephrine (NE) transporter (NE uptake) and serotonin (5-hydroxytryptamine (5HT)) transporter (5HT uptake) according to protocols described herein

human Y4 receptor = target: T3, human Y4 receptor (Homo sapiens, UniProt P50391); assay: Binding at human neuropeptide Y Y4 receptor; conditions: Table 8; read-out: hY4 Ki
T3 construct: host or cells: L cells, line L-hY4-3
Text: as §2, §3, §4

rat NPFF2 receptor = target: T4, rat NPFF2 receptor (Rattus norvegicus, UniProt Q9EQD2); assay: Functional assay (agonist potency, intrinsic activity) at cloned rat NPFF2 receptor; format: cell-based; conditions: Table 7, intrinsic activity
T4 construct: The full-length NPFF2 was amplified from rat spinal cord cDNA; expressed in transfected cells; host or cells: not given

[2] = target: T5, serotonin (5HT) transporter (Rattus norvegicus, UniProt P31652); assay: Binding at native serotonin transporter (5HT uptake); conditions: Table 8
T5 construct: evaluated at native, tissue-derived transporters; from tissue
Method in brief: as §1

human Y2 receptor = target: T6, human Y2 receptor (Homo sapiens, UniProt P49146); assay: Binding at human neuropeptide Y Y2 receptor; conditions: Table 8; read-out: hY2 Ki
T6 construct: host or cells: 293 cells, line 293-hY2-10
T6 sequence (P49146 1-381): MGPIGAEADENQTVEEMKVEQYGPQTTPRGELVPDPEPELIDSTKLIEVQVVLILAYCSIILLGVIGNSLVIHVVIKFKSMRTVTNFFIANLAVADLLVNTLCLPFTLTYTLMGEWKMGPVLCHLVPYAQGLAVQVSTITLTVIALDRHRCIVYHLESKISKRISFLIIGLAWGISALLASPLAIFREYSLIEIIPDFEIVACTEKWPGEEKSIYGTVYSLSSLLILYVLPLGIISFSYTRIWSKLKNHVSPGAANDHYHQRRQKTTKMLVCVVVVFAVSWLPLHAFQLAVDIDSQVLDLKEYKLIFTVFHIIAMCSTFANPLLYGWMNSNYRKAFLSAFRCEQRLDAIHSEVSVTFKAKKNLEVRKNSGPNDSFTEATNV
Text: as §2, §3, §4

human Y5 receptor = target: T7, human Y5 receptor (Homo sapiens, UniProt Q15761); assay: Binding at human neuropeptide Y Y5 receptor; conditions: Table 8; read-out: hY5 Ki
T7 construct: host or cells: L cells, line L-hY5-7
T7 sequence (Q15761 1-445): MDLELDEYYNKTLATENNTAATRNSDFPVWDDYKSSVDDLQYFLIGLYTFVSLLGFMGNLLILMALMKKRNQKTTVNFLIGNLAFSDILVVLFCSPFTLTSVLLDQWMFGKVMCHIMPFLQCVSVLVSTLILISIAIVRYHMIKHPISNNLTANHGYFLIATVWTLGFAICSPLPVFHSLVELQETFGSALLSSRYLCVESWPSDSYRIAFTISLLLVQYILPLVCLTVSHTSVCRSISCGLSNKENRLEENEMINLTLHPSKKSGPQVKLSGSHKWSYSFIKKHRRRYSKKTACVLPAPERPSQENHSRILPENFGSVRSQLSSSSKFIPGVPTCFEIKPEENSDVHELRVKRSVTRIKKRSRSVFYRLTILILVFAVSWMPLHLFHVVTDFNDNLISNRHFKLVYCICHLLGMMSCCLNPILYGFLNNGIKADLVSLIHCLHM
Text: as §2, §3, §4

T3 sequence (P50391 whole entry): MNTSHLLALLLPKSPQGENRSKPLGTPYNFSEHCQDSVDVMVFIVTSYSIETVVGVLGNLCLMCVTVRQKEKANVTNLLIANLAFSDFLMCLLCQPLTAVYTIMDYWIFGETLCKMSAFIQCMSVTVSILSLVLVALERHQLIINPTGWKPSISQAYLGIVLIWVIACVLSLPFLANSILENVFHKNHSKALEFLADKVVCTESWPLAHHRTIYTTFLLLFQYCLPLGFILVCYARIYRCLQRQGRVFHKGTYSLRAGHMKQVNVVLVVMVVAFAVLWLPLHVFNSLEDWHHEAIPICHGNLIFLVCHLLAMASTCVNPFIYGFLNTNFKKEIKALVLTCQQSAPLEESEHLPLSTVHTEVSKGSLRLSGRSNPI
T1 sequence (Q63380 1-617): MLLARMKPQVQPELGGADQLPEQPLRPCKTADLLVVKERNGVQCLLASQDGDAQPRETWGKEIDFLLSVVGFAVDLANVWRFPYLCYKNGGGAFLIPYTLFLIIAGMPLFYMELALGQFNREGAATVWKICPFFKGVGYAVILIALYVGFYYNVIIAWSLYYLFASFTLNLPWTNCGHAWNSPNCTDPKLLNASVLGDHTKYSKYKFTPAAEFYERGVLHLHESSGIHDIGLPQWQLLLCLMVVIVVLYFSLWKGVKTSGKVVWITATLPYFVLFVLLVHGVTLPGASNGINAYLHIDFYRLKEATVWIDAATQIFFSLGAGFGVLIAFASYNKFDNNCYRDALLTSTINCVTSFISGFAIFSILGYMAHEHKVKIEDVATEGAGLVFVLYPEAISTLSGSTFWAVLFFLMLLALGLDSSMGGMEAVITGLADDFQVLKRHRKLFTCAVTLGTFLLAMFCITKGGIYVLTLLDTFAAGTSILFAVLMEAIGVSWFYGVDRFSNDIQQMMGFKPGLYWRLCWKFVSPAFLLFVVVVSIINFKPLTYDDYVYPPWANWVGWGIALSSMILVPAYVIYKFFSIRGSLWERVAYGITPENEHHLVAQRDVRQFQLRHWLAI
T5 sequence (P31652 whole entry): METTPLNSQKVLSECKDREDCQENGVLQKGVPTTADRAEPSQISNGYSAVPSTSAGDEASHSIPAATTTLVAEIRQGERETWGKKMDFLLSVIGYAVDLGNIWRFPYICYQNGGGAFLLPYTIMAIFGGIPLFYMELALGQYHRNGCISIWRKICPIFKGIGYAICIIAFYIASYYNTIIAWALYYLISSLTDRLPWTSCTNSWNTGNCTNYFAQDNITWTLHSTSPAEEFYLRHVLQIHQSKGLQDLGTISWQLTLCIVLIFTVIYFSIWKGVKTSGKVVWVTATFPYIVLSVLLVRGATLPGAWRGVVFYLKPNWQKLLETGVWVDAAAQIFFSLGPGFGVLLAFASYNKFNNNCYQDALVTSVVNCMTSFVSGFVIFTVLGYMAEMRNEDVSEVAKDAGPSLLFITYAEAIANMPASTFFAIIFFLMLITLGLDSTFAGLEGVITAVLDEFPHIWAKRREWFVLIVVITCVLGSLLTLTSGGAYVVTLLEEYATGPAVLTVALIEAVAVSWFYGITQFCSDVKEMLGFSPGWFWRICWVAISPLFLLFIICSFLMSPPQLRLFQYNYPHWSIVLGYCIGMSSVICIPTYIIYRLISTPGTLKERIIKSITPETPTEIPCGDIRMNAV
T4 sequence (Q9EQD2 whole entry): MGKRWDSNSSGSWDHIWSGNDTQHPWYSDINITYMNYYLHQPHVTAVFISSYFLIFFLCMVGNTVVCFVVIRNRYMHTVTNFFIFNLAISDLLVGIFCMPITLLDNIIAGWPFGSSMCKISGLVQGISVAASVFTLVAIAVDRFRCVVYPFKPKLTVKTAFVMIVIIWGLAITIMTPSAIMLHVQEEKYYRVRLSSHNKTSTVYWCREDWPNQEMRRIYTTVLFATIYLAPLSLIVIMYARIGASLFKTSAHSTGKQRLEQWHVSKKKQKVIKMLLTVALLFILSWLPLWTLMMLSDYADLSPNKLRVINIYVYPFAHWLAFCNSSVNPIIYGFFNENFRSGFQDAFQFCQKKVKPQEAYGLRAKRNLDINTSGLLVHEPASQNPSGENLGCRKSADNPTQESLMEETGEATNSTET

Structure (SMILES)	pKi [1]	pKi (human Y1 receptor)	pKi (human Y4 receptor)	rNPFF2 IA (rat NPFF2 receptor) [% NPFF]	pKi [2]	pKi (human Y2 receptor)	pKi (human Y5 receptor)
Cc1nc(NC(=N)N)nc2ccc3ccccc3c12 [Compound 1007A]	5.71	5.28	5.58	66	7.59	< 4.30	7.13
Cc1cc(NC(=N)N)nc2ccc(Cl)cc12 [Compound 4005A, N-(6-chloro-4-methyl-2-quinolinyl)guanidine]	5.08	4.91	5.30	61	5.59	< 4.30	6.45
